Data taken from patent US20220025004A1, “COMPOSITIONS AND METHODS RELATED TO SITE-SPECIFIC IDENTIFICATION OF RNA MODIFICATIONS” (The University of Chicago, priority 2018, published 2022).
Where a SMILES comes first, the peptide text is derived from it. The star is where a group is joined. Cbz = O=C(OCc1ccccc1)*; CHN2 = [N-]=[N+]=C*; tBu = CC(C)(C)*

Tests used:
Flt3L-DCs = test: Cross-priming capacity of Flt3L-DCs pre-treated with CA-074 and/or cathepsin L inhibitor III, co-cultured with necrotic B16-OVA (IFN-γ production); assay type: cell-based, mouse; conditions: 5 μg/ml inhibitor for 2 h, necrotic B16-OVA 16 h, OT-I cells 3 days, FIG. 12F
Description: (§1) For cross-presentation of tumor neoantigen, CD11b^+ or CD8^+ DC were purified from draining lymph node of WT or Ythdf1^−/− mice six days after inoculating with B16-OVA, MC38-OTIp or MC38-EGFR-SIY. OT-I or 2C naive CD8^+ T cells were isolated from lymph nodes and spleen of 6 to 12-week-old mice. Negative selection was carried out with a negative CD8 isolation kit (StemCell Technologies, Inc.) following manufacturer's instruction. DCs were co-cultured with OT-1 naive CD8 T cells at the ratio of 1:10 for three days with or without 1 μg/ml SIINFEKEL peptide. For cross-presentation of soluble OVA, splenic DCs were sorted and stimulated with 100 ng/ml LPS overnight. DCs were then pulsed with different concentration of OVA (endotoxin free, Sigma) for 5 hours. Cells were washed and co-cultured with OT-I naive CD8^+ T cells for three days. For in vitro cross-presentation of tumor neoantigen, Flt3L-DCs were collected on day 9-10 and co-cultured with necrotic B16-OVA tumor cells overnight. B220^−CD11c^+ cells were subsequently purified. […] IFN-T production was detected by IFN-γ Flex Set CBA assay (BD Bioscience). […] The cross-priming capacity of DC was analyzed by the dilution of CTV in CD8^+ T cells. […] The cross-priming capacity of DCs was then evaluated by the IFN-γ production. […]

B16-OVA tumors = test: Cathepsin blockade in vivo: B16-OVA tumor growth after intratumoral E64; set-up: species or system mouse; conditions: WT mice, s.c. B16-OVA, E64 intratumorally (5 μM or 50 μM) on day 11; FIG. 4B
Description: About 1×10^6 B16-OVA or MC38 tumor cells were injected s.c. into the flank of mice. Tumor volumes were measured by length (a) and width (b) and calculated as tumor volume=ab^2/2. Mice with tumor volumes less than 200 mm^3 are considered to be survival. For in vivo depletion experiments, 200 μg of anti-CD8 antibody (clone YTS169.4) or anti-NK1.1 (clone PK136) was injected i.p. three days after tumor inoculation. To block cathepsins in vivo, mice were inoculated with 1×10^6 B16-OVA cells. On day 11, mice with established tumors were treated with E64 intratumorally. For anti-PDL1 treatment, 1×10^6 B16-OVA tumor cells were s.c. injected into the flank of mice. Tumors were allowed to grow for seven days and treated i.p. by anti-PDL1 (clone10F.9G2) or Rat Ig. Tumor-free mice after treatment were monitored over time and the percentage of tumor-regression was calculated. To block IFNγ, tumor-bearing mice were treated with 50 μg anti-IFNγ mAb (clone XMG1.2) intratumorally and PD-L1 expression on tumor cells was evaluated by flow cytometry. All antibodies were ‘InVivoMAb’ from BioXCell. For adoptive transfer of T cells. Rag mice were inoculated with 5×10^5 B16-OVA on day 0. On the same day, T cells were purified from WT or Ythdf1^−/− mice using T cell negative isolation Kit (STEM CELL). 5×10^6 T cells were intravenously (i.v.) injected into Rag2^−/− mice.

wild-type DCs = test: Cross-priming capacity of wild-type DCs pre-treated with cathepsin inhibitor E64 (ex vivo cDCs, CTV dilution; GMDCs, IFN-γ CBA); assay type: cell-based, mouse; conditions: E64 0.04 μM (ex vivo cDCs, OVA protein) or 0.2-2 μM (GMDCs, B16-OVA); OT-I T cells; FIGS. 12D-12E
Description: as §1

| SMILES | efficiency of cross-priming in wild-type DCs (Flt3L-DCs) | in vivo antitumor response (B16-OVA tumors) | efficiency of cross-priming in wild-type DCs (wild-type DCs) |
| --- | --- | --- | --- |
| CCCNC(=O)[C@H]1O[C@@H]1C(=O)N[C@H](C(=O)N1CCC[C@H]1C(=O)OC)[C@@H](C)CC [CA-074] | notably enhanced |  |  |
| CC(C)C[C@H](NC(=O)[C@H]1O[C@@H]1C(=O)O)C(=O)NCCCCN=C(N)N [E64] |  | markedly improved | notably enhanced |
| CC(C)(C)Oc1ccc(C[C@H](NC(=O)[C@H](Cc2ccccc2)NC(=O)OCc2ccccc2)C(=O)C=[N+]=[N-])cc1 [cathepsin L inhibitor III] (Cbz-Phe-Tyr(tBu)-CHN2) | notably enhanced |  |  |
